This is an account of results in the NIST ThermoML archive (doi:10.1016/j.jct.2004.05.001).

For this data set the following is noted: 298.15 K; 101.33 kPa; Liquid.

As usually defined, the mass density is mass per unit of volume.

SMILES strings stand for the structures. Numbers after ± are expanded uncertainties.

On to `CCCCCCC` [heptane], for which the mass density is reported as 690.6 ± 1.6 kg/m3. For `c1ccccc1` [benzene], the mass density amounted to 873.2 ± 0.9 kg/m3. The value for `CCCCCCn1cc[n+](C)c1.F[B-](F)(F)F` [1-hexyl-3-methylimidazolium tetrafluoroborate] was 1148.1 ± 5 kg/m3; that for `CCCCCCCCCCCCCCCC` [hexadecane] was 771.5 ± 1.4 kg/m3. As to `CCCCCCn1cc[n+](C)c1.F[P-](F)(F)(F)(F)F` [1-hexyl-3-methylimidazolium hexafluorophosphate], the mass density is 1293.5 ± 7 kg/m3. The value for `CCCCCCCCCCCC` [dodecane] was 747 ± 4 kg/m3.
